Measurements reported in paper PMC6891756, “Synthesis and Biological Evaluation of Novel Aminochalcones as Potential Anticancer and Antimicrobial Agents” (Molecules, 2019).
In brackets after ≈: the same amount, converted by molar mass.

What was measured:
Trichophyton rubrum = system: Trichophyton rubrum; parameters: method as in doi:10.1007/s10600-018-2281-7; conditions: cited from earlier work
LS180 = experiment: SRB antiproliferative assay, LS180; format: cell-based, human; conditions: Homo sapiens, LS180, 48 h, 1–100 µg·mL^−1, ND = not detected in the tested concentration range
Procedure: (§1) Anticancer activity was evaluated using the sulforhodamine B assay (SRB) on four different human colon cancer cell lines: HT-29, LS180, LoVo and LoVo/DX and green monkey kidney fibroblasts COS7 (ATCC, Manassas, VA, USA). Cell lines HT-29 and COS7 were cultured in α-MEM medium (IIET PAS, Wrocław, Poland), LS180 in OptiMEM medium (IIET PAS), LoVo and LoVo/DX in mixture of α-MEM and OptiMEM medium (1:1 (v:v)). Each culture medium was supplemented with 10% fetal bovine serum, 2 mM glutamine, 100 μg·mL^−1 penicillin, 100 μg·mL^−1 streptomycin and 0.25 μg·mL^−1 amphotericin (all supplements purchased from Gibco (Paisley, UK). Cells were incubated at 37 °C, 5% CO2 in HeraCELL 150i incubator (Thermo Fisher Scientific, Waltham, MA, USA).
(§2) For the SRB assay, cells were seeded onto 96-well plates (Sarstedt, Nümbrecht, Germany) at a density of 5·10^3/well and cultured overnight as described above. Then, the growth medium was gently removed and replaced with fresh medium, supplemented with aminochalcone derivatives in the concentration ranging from 1 µg·mL^−1 to 100 µg·mL^−1. All stock solutions were prepared in DMSO at a concentration of 10 mg·mL^−1. Cells were incubated for 48 h and then the SRB assay was performed as described previously. Each experiment was performed in quadruplicate. The final results were reported as the IC50 values calculated for three independent experiments. Cisplatin (Acros Organics, Waltham, MA, USA) and doxorubicin (Fisher BioReagents, Waltham, MA, USA) were used as positive controls of the test.

[1] = SRB assay, normal fibroblasts COS7; format: cell-based, green monkey; conditions: green monkey, COS7 kidney fibroblasts (normal cell line), ND = not detected in the tested concentration range
Procedure: as §1, §2

[2] = system: Aspergillus niger DSM1957; experiment: Microbial growth curve screening, A. niger; format: cell-based; conditions: 0.1% (w/v); for ∆OD A. niger: OD at 560 nm, control 2.14; for Lag-phase A. niger: control 11.0 h
Procedure: (§3) The antimicrobial screening tests were performed on two strains of bacteria: E. coli ATCC10536 and S. aureus DSM799, strain of yeast C. albicans DSM1386 and three strains of fungi: F. linii KB-F1, A. alternata CBS1526 and A. niger DSM1957. All microorganisms were obtained from the collection of the Faculty of Biotechnology and Food Microbiology, Wrocław University of Environmental and Life Sciences. The bacteria were cultured in nutrient broth (Biocorp, Warsaw, Poland), yeast and fungi in YM medium (3 g yeast extract, 3 g malt extract, 5 g bacteriological peptone and 10 g of glucose dissolved in 1 L of distilled water). The tests were carried out in 100-well microtiter plates. To each well 280 μL of culture medium, 10 μL of microorganism suspension and 10 μL of aminochalcone (1–18) dissolved in dimethyl sulfoxide (3% (w/v)) were added. The final concentration of the tested compound (1–18) was 0.1% (w/v). Each experiment were performed in 3 replications. The optical density of the cell suspension was measured on Bioscreen C (Automated Growth Curve Analysis System Lab System, Vantaa, Finland) at 560 nm automatically, at regular intervals of 30 min for 2–3 days. Cell cultures were maintained at 28 °C on a continuous shaker. To prepare the growth curves for each strain, the mean values of the absorbance in a function of time were used. The resulting antimicrobial activity was expressed as the increase of optical density (ΔOD) and was compared to that of the control cultures in the medium supplemented with dimethyl sulfoxide and also with reference substances: oxytetracycline (against bacteria), cycloheximide (against yeast) and nystatin (against fungi) (Sigma Aldrich).

LoVo = experiment: SRB antiproliferative assay, LoVo; format: cell-based, human; conditions: Homo sapiens, LoVo, 48 h, 1–100 µg·mL^−1, ND = not detected in the tested concentration range
Procedure: as §1, §2

[3] = system: Escherichia coli ATCC10536; experiment: Microbial growth curve screening, E. coli; format: cell-based; conditions: 0.1% (w/v); for ∆OD E. coli: OD at 560 nm, control 1.61
Procedure: as §3

[4] = system: Alternaria alternata CBS1526; experiment: MIC evaluation (broth method), A. alternata; format: cell-based; conditions: Alternaria alternata, CBS1526, 48–72 h, read-out: Minimal inhibitory concentration A. alternata
Procedure: (§4) Sterile 96-well microtiter plates (Sarstedt) with nutrient broth (for bacteria) (Biocorp) or YM medium (for yeast and filamentous fungi) were inoculated with a standardized cell suspension of bacteria and yeast or fungal spores of 10^5 cell·mL^−1, and supplemented with aminochalcones dissolved in DMSO. […] All analysis were conducted in triplicates. The plates were incubated at 30 °C (bacteria and yeast) or 25 °C (filamentous fungi) for 48–72 h. The results were measured with the Spark® Multimode Microplate Reader (Tecan, Männedorf, Switzerland) at a 560 nm wavelength. The minimal inhibitory concentration was defined as the lowest concentration of a tested compound that completely restricted the growth of the microorganism. In order to verify the obtained results, microbial cultures subjected to each concentration of aminochalcone were inoculated onto nutrient agar or YM plates and incubated as described above. The lack of growth on agar plate was a confirmation of the MIC of the tested compound. The resulting MIC values were compared with the reference substances: oxytetracycline (against bacteria), cycloheximide (against yeast) and nystatin (against fungi) (Sigma Aldrich).

LoVo/DX = experiment: SRB antiproliferative assay, LoVo/DX; format: cell-based, human; conditions: Homo sapiens, LoVo/DX, 48 h, 1–100 µg·mL^−1, ND = not detected in the tested concentration range
Procedure: as §1, §2

Fusarium linii KB-F1 [5] = experiment: Microbial growth curve screening, F. linii; format: cell-based; conditions: 0.1% (w/v); for ∆OD F. linii: OD at 560 nm, control 1.95; for Lag-phase F. linii: control 13.5 h
Procedure: as §3

HT-29 = experiment: SRB antiproliferative assay, HT-29; format: cell-based, human; conditions: Homo sapiens, HT-29; SRB, 48 h, 1–100 µg·mL^−1; ND = not detected in the tested concentration range
Procedure: as §1, §2

Candida albicans DSM1386 [6] = experiment: Microbial growth curve screening, C. albicans; format: cell-based; conditions: 0.1% (w/v); for ∆OD C. albicans: OD at 560 nm, control 1.58; for Lag-phase C. albicans: control 3.0 h
Procedure: as §3

[7] = system: Staphylococcus aureus DSM799; experiment: Microbial growth curve screening, S. aureus; format: cell-based; conditions: 0.1% (w/v); for ∆OD S. aureus: OD at 560 nm, control 1.67
Procedure: as §3

[8] = system: Staphylococcus aureus DSM799; experiment: MIC evaluation (broth method), S. aureus; format: cell-based; conditions: 48–72 h, read-out: Minimal inhibitory concentration S. aureus
Procedure: as §4

[9] = system: Aspergillus niger DSM1957; experiment: MIC evaluation (broth method), A. niger; format: cell-based; conditions: Aspergillus niger, DSM1957, 48–72 h, read-out: Minimal inhibitory concentration A. niger
Procedure: as §4

Candida albicans DSM1386 [10] = experiment: MIC evaluation (broth method), C. albicans; format: cell-based; conditions: DSM1386, broth method, 48–72 h, read-out: Minimal inhibitory concentration C. albicans
Procedure: as §4

[11] = system: Escherichia coli ATCC10536; experiment: MIC evaluation (broth method), E. coli; format: cell-based; conditions: 48–72 h, read-out: Minimal inhibitory concentration E. coli
Procedure: as §4

[12] = system: Alternaria alternata CBS1526; experiment: Microbial growth curve screening, A. alternata; format: cell-based; conditions: 0.1% (w/v); for ∆OD A. alternata: OD at 560 nm, control 1.86; for Lag-phase A. alternata: control 16.5 h
Procedure: as §3

Fusarium linii KB-F1 [13] = experiment: MIC evaluation (broth method), F. linii; format: cell-based; conditions: Fusarium, KBF1, 48–72 h, read-out: Minimal inhibitory concentration F. linii
Procedure: as §4

Structure (SMILES) | IC50 (LS180) [µg/mL] | IC50 at 48 h [1] [µg/mL] | ∆OD A. niger [2] | Lag-phase A. niger [2] [h] | IC50 (LoVo) [µg/mL] | ∆OD E. coli [3] | melting point [°C] | MIC [4] [µg/mL] | IC50 (LoVo/DX) [µg/mL] | ∆OD F. linii (Fusarium linii KB-F1 [5]) | Lag-phase F. linii (Fusarium linii KB-F1 [5]) [h] | IC50 (HT-29) [µg/mL] | ∆OD C. albicans (Candida albicans DSM1386 [6]) | Lag-phase C. albicans (Candida albicans DSM1386 [6]) [h] | ∆OD S. aureus [7] | MIC [8] [µg/mL] | MIC [9] [µg/mL] | MIC (Candida albicans DSM1386 [10]) [µg/mL] | MIC [11] [µg/mL] | ∆OD A. alternata [12] | other results
Nc1ccccc1C(=O)/C=C/c1cccc([N+](=O)[O-])c1 [2′-amino-3-nitro-chalcone] | – | – | – | – | – | – | – | – | – | – | – | – | – | – | – | – | – | – | – | – | MIC80 Trichophyton rubrum (literature) (Trichophyton rubrum): 0.5 µg/mL (≈ 1.86 µM)
CCc1ccc(/C=C/C(=O)c2ccc(N)cc2)cc1 [Compound 6, 4′-Amino-4-ethylchalcone] | 5.2 ± 0.3 (≈ 20.7 µM) | 7.16 ± 0.34 (≈ 28.5 µM) | 0.41 | 36.5 | 4.26 ± 0.19 (≈ 16.9 µM) | 0.16 | 125 | 1 (≈ 3.98 µM) | 3.68 ± 0.3 (≈ 14.6 µM) | 0.40 | 9.0 | 3.61 ± 0.21 (≈ 14.4 µM) | 0.44 | 9.5 | 0.87 | – | – | – | – | – | Lag-phase E. coli ([3]; control 4.0 h): 3.5 h; Lag-phase S. aureus ([7]; control 2.5 h): 28.0 h
Nc1ccccc1C(=O)/C=C/c1ccc(C(=O)O)cc1 [Compound 7, 2′-Amino-4-carboxychalcone] | 7.86 ± 0.35 (≈ 29.4 µM) | 7.78 ± 0.75 (≈ 29.1 µM) | – | – | 7.68 ± 0.34 (≈ 28.7 µM) | 0.0 | 188 to 191 | 0.5 (≈ 1.87 µM) | 11.1 ± 0.44 (≈ 41.5 µM) | 0.37 | 26.0 | 4.26 ± 0.13 (≈ 15.9 µM) | – | – | 0.0 | 0.125 (≈ 0.468 µM) | 0.125 (≈ 0.468 µM) | 0.125 (≈ 0.468 µM) | 0.125 (≈ 0.468 µM) | – | –
Nc1cccc(C(=O)/C=C/c2ccc([N+](=O)[O-])cc2)c1 [Compound 11, 3′-Amino-4-nitrochalcone] | 2.89 ± 0.53 (≈ 10.8 µM) | 2.3 ± 0.45 (≈ 8.57 µM) | 0.83 | 39.5 | 1.34 ± 0.1 (≈ 4.99 µM) | 0.0 | 166 to 168 | – | 1.36 ± 0.06 (≈ 5.07 µM) | 0.0 | – | 2.77 ± 0.49 (≈ 10.3 µM) | – | – | 0.0 | 0.25 (≈ 0.932 µM) | 1 (≈ 3.73 µM) | 0.25 (≈ 0.932 µM) | 1000 (≈ 3730 µM) | 0.55 | Lag-phase A. alternata [12]: 42.0 h; MIC (Fusarium linii KB-F1 [13]): 0.5 µg/mL (≈ 1.86 µM)
Nc1ccc(C(=O)/C=C/c2ccc([N+](=O)[O-])cc2)cc1 [Compound 12, 4′-Amino-4-nitrochalcone] | 4.64 ± 0.54 (≈ 17.3 µM) | 3.1 ± 0.5 (≈ 11.6 µM) | – | – | 1.8 ± 0.1 (≈ 6.71 µM) | 0.0 | 205 to 207 | – | 2 ± 0.12 (≈ 7.46 µM) | 0.0 | – | 3.42 ± 0.54 (≈ 12.7 µM) | 0.13 | 12.0 | 0.0 | 0.25 (≈ 0.932 µM) | – | – | 0.25 (≈ 0.932 µM) | 0.87 | Lag-phase A. alternata [12]: 13.0 h; MIC (Fusarium linii KB-F1 [13]): 1 µg/mL (≈ 3.73 µM)
